Assay [1] deals with Trypanosoma cruzi. As to the kind of experiment: Inhibitory concentration against growth of Trypanosoma cruzi amastigotes. It counts as functional, organism-based.
In assay [2] the test system is Trypanosoma cruzi. Put plainly: Inhibitory concentration against growth of Trypanosoma cruzi epimastigotes. The assay is classed as functional, organism-based.

With `CCCCC(N)(P(=O)(O)O)P(=O)(O)O`, the values for the IC50 with Trypanosoma cruzi [1] and with Trypanosoma cruzi [2] were > 85 µM and > 100 µM, respectively.

As to `CCC(N)(P(=O)(O)O)P(=O)(O)O`, the IC50 (usually the point on the concentration scale where inhibition reaches its midpoint) with Trypanosoma cruzi [1] is > 85 µM; in the assay with Trypanosoma cruzi [2] it was > 100 µM.

`CCCC(N)(P(=O)(O)O)P(=O)(O)O`: the IC50 was > 85 µM in the assay with Trypanosoma cruzi [1] and > 100 µM with Trypanosoma cruzi [2].

Turning to `CC(N)(P(=O)(O)O)P(=O)(O)O`, the IC50 in the assay with Trypanosoma cruzi [1] and with Trypanosoma cruzi [2] was > 100 µM in each case.

As for `CCCCCC(N)(P(=O)(O)O)P(=O)(O)O`, the figures for the IC50 with Trypanosoma cruzi [1] and in the assay on Trypanosoma cruzi [2] were 77 µM and > 100 µM, respectively.

For `CCCCCCC(N)(P(=O)(O)O)P(=O)(O)O`, the IC50 is 72 µM in the assay on Trypanosoma cruzi [1] and > 100 µM in the assay on Trypanosoma cruzi [2].

The values above are taken from ChEMBL document CHEMBL1143452, “Synthesis and biological evaluation of 1-amino-1,1-bisphosphonates derived from fatty acids against Trypanosoma cruzi targeting farnesyl pyrophosphate synthase” (Bioorg Med Chem Lett, 2005).
